Like-named read-outs stand apart in the source and are kept apart here.
How the values were obtained:
[1] = test system: thyroid hormone levels (T4); conditions: cited from earlier work; for EC50: read-out: EC50 T4 reduction, reduction of thyroid hormone levels (immunostaining)
[2] = test system: thyroglobulin (tg:mCherry reporter gene); assay: animal or person; conditions: for EC50: Danio rerio, read-out: EC50 (tg:mCherry induction)
Method: In order to avoid interference of test chemicals with early thyroid gland development, zebrafish embryos were cultured in exposure medium until 48 hours post fertilization (hpf). Subsequently, they were exposed to seven known thyroid endocrine disrupters for 3 days (48 to 120 hpf). The non-goitrogenic compound 3,4-dichloroaniline, that is used as reference compound in the zebrafish acute embryo toxicity test was used as negative control. […] No solvents were used. […] Five concentrations and one control were tested per compound and replicate. In the second replicate the range of concentration was adjusted to improve fitting of concentration-response curves. […] Given the lack of appropriate spectral properties stability of exposure concentrations was not analysed for potassium perchlorate. Embryos were kept in the incubator at 26°C and a 14:10 hours light:dark cycle. The exposure was conducted in crystallisation dishes covered with watchmaker glasses with 30 embryos in 30 ml exposure medium (for exposure medium refer to [26]).
Embryos were positioned ventrally toward the microscope objective. Per embryo a bright field image, an autofocus fluorescence image and a Z-stack of 9 images were obtained. The Z-stack was required in case of autofocus failure and manual selection of the focal plane. Fluorescence images were obtained with 400 ms of fluorescent light exposure at maximal light intensity and a gain of 1. […] However, care was taken, that at least 10 images per concentration and replicates were assessed. To avoid a time bias during the analysis the sequence of wells for analysis was arranged in order to obtain a uniform distribution over the entire period of analysis.
The images were analysed using a KNIME workflow (Version 3.3.3., [29]) with the extension “KNIME image processing”. In brief, images were loaded into the workflow and the background was removed automatically using the “rolling ball” procedure of the image J plugin (rolling ball size set to 50 pixels). Subsequently the area containing the thyroid gland was manually selected by drawing a rectangle around the appropriate region using the interactive annotation node. […] If possible the autofocus images were used. In case that the thyroid gland was out of focus due to the presence of autofluorescing pigment cells, an appropriate image from the Z-stack was selected. All subsequent steps were conducted without any user interaction. […] Finally the sum of pixel (reflecting area of the thyroid gland and intensity of fluorescence) was calculated for the labeled area and used as a proxy of fluorescence intensity (see Fig 1 for an overview of the workflow). For each replicate the sum was of pixels was normalized by setting controls to the value of one. For data of individual embryos see S4 Table. The KNIME workflow used for image analysis is provided as supplement file (S1 Workflow).
To characterize the potency of the investigated goitrogenic compounds, we calculated EC50 values of tg:mcherry fluorescence using the pixel sum obtained from image analysis. For each replicate the fluorescence intensity was normalized by dividing the mean fluorescence intensity of each concentration with the mean control fluorescence intensity. Concentration-response curves of tgmcherry fluorescence were fitted to the data using the Hill-slope equation (Eq 1) and used to estimate EC50 values.
The parameter Min was set to 1 and the slope (p) and the maximum fluorescence (Max) were estimated.

[3] = ref chemspider (http://www.chemspider.com); cited from earlier work
in vivo = conditions: zebrafish, in vivo, LC50 (48–120 hpf), mortality, embryos exposed 48–120 hpf
Method: (§1) Fish embryo acute toxicity tests were performed similar as described previously, using 10 or 25 embryos per concentration and replicate exposed in crystallization dishes from 48 to 120 hpf. No exchange of exposure media was performed. Lethality was identified by coagulation, missing heartbeat, a non–detached tail and/or missing of somites. Raw data for mortality and phenotypic assessment are provided as S1 Table. Concentration-response curves for mortality are shown in S2 Fig.

zebrafish embryos [4] = assay: in vivo
Method: as §1

[5] = test system: thyroglobulin (tg:mCherry reporter gene); set-up: method as in PMID 25962731; conditions: manual positioning and image analysis; cited from earlier work
zebrafish embryos [6] = conditions: read-out: LC50 (48–120 hpf); mortality; ref Fetter et al. [22]; cited from earlier work
[7] = 72 hpf, 987.65 µmol/L, replicate 2, 10 embryos
[8] = 72 hpf, 1481.48 µmol/L, replicate 2, 10 embryos
[9] = 72 hpf, 2222.22 µmol/L, replicate 2, 10 embryos
[10] = 72 hpf, 3333.33 µmol/L, replicate 2, 10 embryos
[11] = 72 hpf, 5000.00 µmol/L, replicate 2, 10 embryos
[12] = 96 hpf, 987.65 µmol/L, replicate 2, 10 embryos
[13] = 96 hpf, 1481.48 µmol/L, replicate 2, 10 embryos
[14] = 96 hpf, 2222.22 µmol/L, replicate 2, 10 embryos
[15] = 96 hpf, 3333.33 µmol/L, replicate 2, 10 embryos
[16] = 96 hpf, 5000.00 µmol/L, replicate 2, 10 embryos
[17] = 120 hpf, 937.50 µmol/L, replicate 1, 25 embryos
[18] = 120 hpf, 987.65 µmol/L, replicate 2, 10 embryos
[19] = 120 hpf, 1481.48 µmol/L, replicate 2, 10 embryos
[20] = 120 hpf, 1875.00 µmol/L, replicate 1, 25 embryos
[21] = 120 hpf, 2222.22 µmol/L, replicate 2, 10 embryos
[22] = 120 hpf, 3333.33 µmol/L, replicate 2, 10 embryos
[23] = 120 hpf, 3750.00 µmol/L, replicate 1, 25 embryos
[24] = 120 hpf, 5000.00 µmol/L, replicate 2, 10 embryos
[25] = 120 hpf, 7500.00 µmol/L, replicate 1, 25 embryos
[26] = 120 hpf, 15000.00 µmol/L, replicate 1, 25 embryos

Oc1cccc(O)c1 [Resorcinol, resorcinol]
EC50 ([1]; ref Thienpont et al. [13]): 82 µM | TDI (T4) ([1]; thyroid disruption index based on T4 reduction, ref Thienpont et al. [13]): 62 | EC50 [2]: 3.4 µM | BMD 20 ([2]; zebrafish, in vivo): 0.663 µM | Slope ([2]; zebrafish, in vivo): 0.78 | TDI ([2]; zebrafish, in vivo): 1529 | effect on tg:mCherry fluorescence ([2]; zebrafish, in vivo): weaker induction or repression of fluorescence | Log D (pH 7.4) [3]: 0.86 | LC50 (in vivo): 5200 µM | No Surviving (zebrafish embryos [4]; [7]): 10 | No hatched (zebrafish embryos [4]; [7]): 9 | No Surviving (zebrafish embryos [4]; [8]): 10 | No hatched (zebrafish embryos [4]; [8]): 10 | No Surviving (zebrafish embryos [4]; [9]): 10 | No hatched (zebrafish embryos [4]; [9]): 9 | No Surviving (zebrafish embryos [4]; [10]): 10 | No hatched (zebrafish embryos [4]; [10]): 10 | Total Sublethal (zebrafish embryos [4]; [10]): 6 | Ydef (yolk deformation) (zebrafish embryos [4]; [10]): 6 | No Surviving (zebrafish embryos [4]; [11]): 10 | No hatched (zebrafish embryos [4]; [11]): 10 | Total Sublethal (zebrafish embryos [4]; [11]): 8 | Ydef (yolk deformation) (zebrafish embryos [4]; [11]): 8 | No Surviving (zebrafish embryos [4]; [12]): 10 | No hatched (zebrafish embryos [4]; [12]): 10 | No Surviving (zebrafish embryos [4]; [13]): 10 | No hatched (zebrafish embryos [4]; [13]): 10 | Total Sublethal (zebrafish embryos [4]; [13]): 1 | Ydef (yolk deformation) (zebrafish embryos [4]; [13]): 1 | No Surviving (zebrafish embryos [4]; [14]): 10 | No hatched (zebrafish embryos [4]; [14]): 10 | Total Sublethal (zebrafish embryos [4]; [14]): 2 | Ydef (yolk deformation) (zebrafish embryos [4]; [14]): 2 | No Surviving (zebrafish embryos [4]; [15]): 10 | No hatched (zebrafish embryos [4]; [15]): 10 | Total Sublethal (zebrafish embryos [4]; [15]): 5 | Ydef (yolk deformation) (zebrafish embryos [4]; [15]): 2 | mch (malformation of chorda/scoliosis) (zebrafish embryos [4]; [15]): 5 | No Surviving (zebrafish embryos [4]; [16]): 10 | No hatched (zebrafish embryos [4]; [16]): 10 | Total Sublethal (zebrafish embryos [4]; [16]): 10 | Ydef (yolk deformation) (zebrafish embryos [4]; [16]): 7 | nobc (no blood circulation) (zebrafish embryos [4]; [16]): 2 | nomov (no spontaneous movement) (zebrafish embryos [4]; [16]): 10 | No Surviving (zebrafish embryos [4]; [17]): 25 | k/f (coagulated) (zebrafish embryos [4]; [17]): 0 | No Surviving (zebrafish embryos [4]; [18]): 10 | No hatched (zebrafish embryos [4]; [18]): 10 | EdY / EdP (heart or yolk sac edema) (zebrafish embryos [4]; [19]): 1 | No Surviving (zebrafish embryos [4]; [19]): 10 | No hatched (zebrafish embryos [4]; [19]): 10 | Total Sublethal (zebrafish embryos [4]; [19]): 1 | Ydef (yolk deformation) (zebrafish embryos [4]; [19]): 1 | No Surviving (zebrafish embryos [4]; [20]): 25 | k/f (coagulated) (zebrafish embryos [4]; [20]): 0 | nomov (no spontaneous movement) (zebrafish embryos [4]; [20]): 25 | EdY / EdP (heart or yolk sac edema) (zebrafish embryos [4]; [21]): 1 | No Surviving (zebrafish embryos [4]; [21]): 10 | No hatched (zebrafish embryos [4]; [21]): 10 | Total Sublethal (zebrafish embryos [4]; [21]): 2 | Ydef (yolk deformation) (zebrafish embryos [4]; [21]): 2 | No Surviving (zebrafish embryos [4]; [22]): 10 | No hatched (zebrafish embryos [4]; [22]): 10 | Total Sublethal (zebrafish embryos [4]; [22]): 5 | Ydef (yolk deformation) (zebrafish embryos [4]; [22]): 5 | mch (malformation of chorda/scoliosis) (zebrafish embryos [4]; [22]): 4 | EdY / EdP (heart or yolk sac edema) (zebrafish embryos [4]; [23]): 25 | No Surviving (zebrafish embryos [4]; [23]): 25 | Total Sublethal (zebrafish embryos [4]; [23]): 25 | k/f (coagulated) (zebrafish embryos [4]; [23]): 0 | EdY / EdP (heart or yolk sac edema) (zebrafish embryos [4]; [24]): 8 | No Surviving (zebrafish embryos [4]; [24]): 7 | No hatched (zebrafish embryos [4]; [24]): 10 | Total Sublethal (zebrafish embryos [4]; [24]): 7 | Ydef (yolk deformation) (zebrafish embryos [4]; [24]): 8 | mch (malformation of chorda/scoliosis) (zebrafish embryos [4]; [24]): 3 | nobc (no blood circulation) (zebrafish embryos [4]; [24]): 10 | nohb (no heartbeat) (zebrafish embryos [4]; [24]): 3 | nomov (no spontaneous movement) (zebrafish embryos [4]; [24]): 10 | No Surviving (zebrafish embryos [4]; [25]): 0 | k/f (coagulated) (zebrafish embryos [4]; [25]): 25 | No Surviving (zebrafish embryos [4]; [26]): 0 | k/f (coagulated) (zebrafish embryos [4]; [26]): 25 | LC10 (zebrafish embryos [4]; mortality after 72 h of exposure, S2 Fig, unit not given, in µM): 4701 | Slope (zebrafish embryos [4]; mortality concentration-response curve, 72 h of exposure): 21.9

Cn1cc[nH]c1=S [Methimazole, methimazole]
EC50 ([1]; ref Thienpont et al. [13]): 290 µM | TDI (T4) ([1]; zebrafish, in vivo): 75 | EC50 [2]: 279 µM | BMD 20 ([2]; zebrafish, in vivo): 186 µM | Slope ([2]; zebrafish, in vivo): 3.3 | TDI ([2]; zebrafish, in vivo): 103 | EC50 [5]: 551 µM | LC50 (zebrafish embryos [6]): 28800 µM | Log D (pH 7.4) [3]: -0.11

— PMC6114901, “An automated screening method for detecting compounds with goitrogenic activity using transgenic zebrafish embryos” (PLoS ONE, 2018)
